Consider seven compounds from DBAASP.

The structures appear in SMILES notation. Values after ≈ are worked out from the molar mass of the structure shown.

For orientation: MIC means the smallest concentration in the dilution series that meets the test's criterion for growth inhibition.

Holding throughout (test): ≥ marks a high value that may be exact or a test limit, other limits are often not marked, values filed in µg/mL are converted to µM
For experiment [1], the system named is Staphylococcus aureus ATCC 25923.
Experiment [2] has as its system Bacillus subtilis ATCC 6633.
Experiment [3] relates to Salmonella enterica subsp. enterica serovar Typhi ATCC 6399.
Experiment [4] deals with Streptococcus agalactiae.
For experiment [5], the system named is Escherichia coli ATCC 25922.
Experiment [6] concerns Pseudomonas aeruginosa ATCC 9027.
Experiment [7] concerns Escherichia coli ATCC 11775.
The test system of experiment [8] is Candida albicans ATCC 10231.
Experiment [9] has as its system Botrytis cinerea.
Experiment [10] has as its system Staphylococcus aureus ATCC 12600.
The test system of experiment [11] is Pseudomonas aeruginosa 198.
The test system of experiment [12] is Klebsiella pneumoniae ESBL 61962.
Experiment [13] concerns Enterococcus faecium mic80.
For experiment [14], the system named is Pseudomonas aeruginosa H1030.
Experiment [15] relates to Enterococcus faecium t62764.
The subject of experiment [16] is Stenotrophomonas maltophilia ATCC 13637.
Experiment [17] concerns Pseudomonas aeruginosa PAO1 H103.
The subject of experiment [18] is Enterobacter cloacae 218R.
Experiment [19] relates to Escherichia coli ESBL 63103.
Experiment [20] deals with Staphylococcus aureus C623.
Experiment [21] has as its system Enterococcus faecalis f43559.
Experiment [22] relates to Pseudomonas aeruginosa 213.
The test system of experiment [23] is Pseudomonas aeruginosa 9.
The test system of experiment [24] is Pseudomonas aeruginosa LES400.
The subject of experiment [25] is Enterococcus faecalis W61950.
Experiment [26] deals with Escherichia coli ESBL 64771.
Experiment [27] concerns Pseudomonas aeruginosa H1027.
Experiment [28] deals with Klebsiella pneumoniae ESBL 63575.
In experiment [29] the test system is Enterococcus faecalis ATCC 29212.
In experiment [30] the test system is Pseudomonas aeruginosa.
For experiment [31], the system named is Proteus mirabilis.
Experiment [32] relates to Shigella dysenteriae.
Experiment [33] relates to Escherichia coli.
The test system of experiment [34] is Klebsiella pneumoniae.
The test system of experiment [35] is Staphylococcus epidermidis.
Experiment [36] has as its system Staphylococcus aureus.
The subject of experiment [37] is Salmonella typhimurium.
Experiment [38] has as its system Bacillus subtilis.
Experiment [39] deals with Micrococcus luteus.
The subject of experiment [40] is Staphylococcus aureus USA 300 LAC.
Experiment [41] relates to Klebsiella pneumoniae ATCC 13883.

As for `CC[C@H](C)[C@H](NC(=O)[C@H](CO)NC(=O)[C@H](CCCCN)NC(=O)[C@H](C)NC(=O)[C@H](C)NC(=O)[C@H](CC(N)=O)NC(=O)[C@H](Cc1c[nH]c2ccccc12)NC(=O)[C@H](CC(C)C)NC(=O)[C@@H](NC(=O)[C@H](CO)NC(=O)[C@H](CC(C)C)NC(=O)[C@@H](N)Cc1ccccc1)[C@@H](C)O)C(=O)N[C@@H](Cc1ccccc1)C(N)=O` [FLSTLWNAAKSIF], the MIC in [1] is 10 µM (≈ 15 µg/mL); in experiment [2], 20 µM (≈ 29.9 µg/mL); in experiment [3], 10 µM (≈ 15 µg/mL); in [4] it was 20 µM (≈ 29.9 µg/mL); in experiment [5], 20 µM (≈ 29.9 µg/mL); in experiment [6] it was 10 µM (≈ 15 µg/mL).
On to `CC[C@H](C)[C@H](N)C(=O)N[C@@H](CC(C)C)C(=O)NCC(=O)N[C@H](C(=O)N[C@H](C(=O)N[C@H](C(=O)N[C@@H](CO)C(=O)N[C@@H](CC(C)C)C(=O)N[C@@H](CC(C)C)C(=O)N[C@@H](CCCCN)C(=O)N[C@@H](CO)C(=O)N[C@@H](CC(C)C)C(N)=O)[C@@H](C)O)[C@@H](C)CC)[C@@H](C)CC` [ILGIITSLLKSL], for which the MIC in [7] was at least 78.7 µM; in experiment [8], 15.7 µM (≈ 20 µg/mL); in experiment [9] it was 0.394 µM (≈ 0.5 µg/mL); in [10] it was 19.7 µM (≈ 25 µg/mL).
As to `CSCC[C@H](NC(=O)[C@@H](NC(=O)[C@H](C)NC(=O)[C@@H]1CCCN1C(=O)[C@H](CO)NC(=O)[C@@H](N)CC(C)C)C(C)C)C(=O)N[C@@H](C)C(=O)N[C@@H](CO)C(=O)N[C@@H](CC(C)C)C(=O)N[C@@H](C)C(N)=O` [LSPAVMASLA], the MIC in [7] is at least 200 µM; in [8], over 200 µM; in [9], at least 200 µM; in experiment [10], at least 200 µM.
Consider `CC[C@H](C)[C@H](NC(=O)[C@H](Cc1c[nH]c2ccccc12)NC(=O)[C@H](Cc1c[nH]c2ccccc12)NC(=O)[C@H](CCCCN)NC(=O)[C@H](CC(C)C)NC(=O)[C@H](CCCN=C(N)N)NC(=O)[C@H](CCCCN)NC(=O)[C@@H](N)CCCN=C(N)N)C(=O)N[C@@H](Cc1ccc(O)cc1)C(=O)O` [RKRLKWWIY], for which the MIC was 3.48 µM (≈ 4.7 µg/mL) in [1]; 27.4 µM (≈ 37 µg/mL) in [11]; at least 110 µM in experiment [12]; 7.12 µM (≈ 9.6 µg/mL) in experiment [13]; 27.4 µM (≈ 37 µg/mL) in experiment [14]; 1.78 µM (≈ 2.4 µg/mL) in experiment [15]. Moreover, the MIC in experiment [16] is 1.78 µM (≈ 2.4 µg/mL); in experiment [17] it was 13.3 µM (≈ 18 µg/mL); in experiment [18] it was 7.12 µM (≈ 9.6 µg/mL); in [19], 3.48 µM (≈ 4.7 µg/mL); in experiment [20] it was 3.48 µM (≈ 4.7 µg/mL); in experiment [21], at least 110 µM. The MIC is 27.4 µM (≈ 37 µg/mL) in [22]; 27.4 µM (≈ 37 µg/mL) in experiment [23]; 27.4 µM (≈ 37 µg/mL) in [24]; at least 110 µM in experiment [25]; 3.48 µM (≈ 4.7 µg/mL) in experiment [26]; 3.48 µM (≈ 4.7 µg/mL) in experiment [27]. Besides, the MIC in [28] and in [29] was 27.4 µM (≈ 37 µg/mL) each time.
For the compound `NCCCC[C@H](NC(=O)[C@H](Cc1c[nH]c2ccccc12)NC(=O)[C@H](Cc1c[nH]c2ccccc12)NC(=O)[C@H](CCCCN)NC(=O)[C@H](CCCCN)NC(=O)[C@@H](N)Cc1c[nH]c2ccccc12)C(=O)N[C@@H](CCCN=C(N)N)C(=O)N[C@@H](CCCN=C(N)N)C(=O)N[C@@H](Cc1c[nH]c2ccccc12)C(=O)O` [WKKWWKRRW], the MIC in experiment [1] is 0.685 µM (≈ 1 µg/mL); in experiment [11], 21.2 µM (≈ 31 µg/mL); in experiment [12], at least 87 µM; in experiment [13], 5.62 µM (≈ 8.2 µg/mL); in [14] it was 21.2 µM (≈ 31 µg/mL); in experiment [15] it was 2.74 µM (≈ 4 µg/mL). Moreover, the MIC in [16] is 0.685 µM (≈ 1 µg/mL); in [17] it was 11 µM (≈ 16 µg/mL); in experiment [18], 11 µM (≈ 16 µg/mL); in experiment [19], 11 µM (≈ 16 µg/mL); in [20] it was 1.37 µM (≈ 2 µg/mL); in [21], at least 87 µM. For the same compound, the MIC in experiment [22] was at least 43.2 µM; in [23] it was 21.2 µM (≈ 31 µg/mL); in experiment [24] it was 21.2 µM (≈ 31 µg/mL); in experiment [25], at least 87 µM; in experiment [26] it was 1.37 µM (≈ 2 µg/mL); in [27], 2.74 µM (≈ 4 µg/mL). Moreover, the MIC was found to be 21.2 µM (≈ 31 µg/mL) in [28] and 43.2 µM (≈ 63 µg/mL) in [29].
For `CC(C)C[C@H](NC(=O)[C@@H](NC(=O)[C@H](CCCCN)NC(=O)[C@H](CO)NC(=O)[C@H](C)NC(=O)[C@@H](NC(=O)[C@H](CCCCN)NC(=O)[C@H](Cc1ccccc1)NC(=O)[C@H](CC(C)C)NC(=O)[C@H](C)NC(=O)CNC(=O)[C@H](CC(C)C)NC(=O)[C@@H](N)Cc1c[nH]c2ccccc12)C(C)C)C(C)C)C(=O)O` [WLGALFKVASKVL], the MIC was 69.8 µM (≈ 100 µg/mL) in experiment [30]; at least 140 µM in experiment [31]; 17.5 µM (≈ 25 µg/mL) in experiment [32]; 8.73 µM (≈ 12.5 µg/mL) in experiment [33]; 17.5 µM (≈ 25 µg/mL) in [34]; 2.17 µM (≈ 3.1 µg/mL) in experiment [35]. Besides, the MIC was 1.12 µM (≈ 1.6 µg/mL) in [36], at least 69.8 µM in [37], 4.4 µM (≈ 6.3 µg/mL) in experiment [38] and 1.12 µM (≈ 1.6 µg/mL) in [39].
With `CC[C@H](C)[C@H](NC(=O)[C@H](CCCCN)NC(=O)[C@H](CCCN=C(N)N)NC(=O)[C@H](CC(C)C)NC(=O)[C@H](Cc1c[nH]c2ccccc12)NC(=O)[C@@H](N)Cc1c[nH]c2ccccc12)C(=O)N[C@@H](Cc1c[nH]c2ccccc12)C(=O)N[C@@H](Cc1c[nH]c2ccccc12)C(N)=O` [WWLRKIWW], the values for the MIC in experiment [40], in experiment [5] and in [41] were 6.2 µM (≈ 7.89 µg/mL), 25 µM (≈ 31.8 µg/mL) and at least 50 µM, respectively.
